Data published in patent US9682955B2, “Quinazoline derivatives useful as CB-1 inverse agonists” (Janssen Pharmaceutica NV, priority 2014, dated 2017).

Tests used:
[1] = target: Human CB1R (Cannabanoid receptor 1) (Homo sapiens (Human), UniProt P21554); assay: CB-1 in vitro cAMP assay (HTRF); assay type: cell-based; conditions: mean where tested more than once
Outline: (§1)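 HEK-293 cells stably transfected with the human receptor, plated overnight at 4E5 cells/mL. Compounds given as 1/3 serial dilutions from 10 mM DMSO stocks. Stimulation in HBSS/5 mM HEPES/0.1% BSA with 0.5 mM IBMX and forskolin (1.5 μM in buffer); cAMP measured by competitive HTRF immunoassay (d2-cAMP, cryptate anti-cAMP) against a cAMP standard curve.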

[2] = target: Human CB2R (Cannabanoid receptor 2) (Homo sapiens (Human), UniProt P34972); assay: CB-2 in vitro cAMP assay (HTRF); assay type: cell-based; conditions: mean where tested more than once
Outline: as §1

Sequence of Human CB2R (Cannabanoid receptor 2) (P34972 whole entry): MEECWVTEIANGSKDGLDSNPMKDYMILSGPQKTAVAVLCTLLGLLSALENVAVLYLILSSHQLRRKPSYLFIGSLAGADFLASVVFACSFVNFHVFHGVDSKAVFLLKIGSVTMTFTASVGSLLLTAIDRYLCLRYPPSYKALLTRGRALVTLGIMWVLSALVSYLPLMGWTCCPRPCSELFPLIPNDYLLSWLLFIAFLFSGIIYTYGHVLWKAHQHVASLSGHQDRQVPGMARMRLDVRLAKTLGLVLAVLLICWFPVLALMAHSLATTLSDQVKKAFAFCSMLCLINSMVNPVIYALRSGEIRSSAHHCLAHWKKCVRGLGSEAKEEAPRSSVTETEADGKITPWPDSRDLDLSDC
Sequence of Human CB1R (Cannabanoid receptor 1) (P21554 whole entry): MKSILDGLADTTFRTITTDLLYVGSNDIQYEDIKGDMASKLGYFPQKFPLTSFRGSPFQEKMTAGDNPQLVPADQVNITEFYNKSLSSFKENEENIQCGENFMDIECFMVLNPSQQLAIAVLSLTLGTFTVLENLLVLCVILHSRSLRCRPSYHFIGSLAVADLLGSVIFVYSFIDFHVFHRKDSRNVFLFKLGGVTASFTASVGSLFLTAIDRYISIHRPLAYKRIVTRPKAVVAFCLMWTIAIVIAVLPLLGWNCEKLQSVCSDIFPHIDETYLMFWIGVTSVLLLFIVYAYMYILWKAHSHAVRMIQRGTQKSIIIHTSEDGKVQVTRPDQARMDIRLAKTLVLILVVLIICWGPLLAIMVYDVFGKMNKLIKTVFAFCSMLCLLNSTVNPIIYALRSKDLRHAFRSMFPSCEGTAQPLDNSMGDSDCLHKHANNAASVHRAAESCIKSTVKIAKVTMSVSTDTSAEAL

SMILES | EC50 [1] [nM] | EC50 [2] [nM]
O=C(O)c1ccc(CNc2ncnc3ccc(C(c4ccc(Cl)cc4)c4ccc(Cl)cc4)cc23)cc1 [compound 60, 4-((6-(bis(4-chlorophenyl)methyl)quinazolin-4-ylamino)methyl)benzoic acid] | 5300 | > 10000
CCOC(=O)COc1ccc(S(=O)(=O)N2CCC(Nc3ncnc4ccc(C(c5ccc(Cl)cc5)c5ccc(Cl)cc5)cc34)CC2)cc1 [Compound #4, Ethyl 2-(4-((4-((6-(bis(4-chlorophenyl)methyl)quinazolin-4-yl)amino)piperidin-1-yl)sulfonyl)phenoxy)acetate] | 9 | 170
Clc1ccc(C(c2ccc(Cl)cc2)c2ccc3ncnc(NC4CCN(c5ncccn5)CC4)c3c2)cc1 [Compound #139, 6-(bis(4-chlorophenyl)methyl)-N-(1-(pyrimidin-2-yl)piperidin-4-yl)quinazolin-4-amine] | 2 | 771
CS(=O)(=O)Nc1nc(NC2CCN(S(=O)(=O)C(F)(F)F)CC2)c2cc(C(c3ccc(Cl)cc3)c3ccc(Cl)cc3)ccc2n1 [Compound #100, N-(6-(bis(4-chlorophenyl)methyl)-4-((1-((trifluoromethyl)sulfonyl)piperidin-4-yl)amino)quinazolin-2-yl)methanesulfonamide] | 432 | > 10000
COc1nc(NC2CCN(S(=O)(=O)C(F)(F)F)CC2)c2cc(C(c3ccc(Cl)cc3)c3ccc(Cl)cc3)ccc2n1 [Compound #103, 6-(bis(4-chlorophenyl)methyl)-2-methoxy-N-(1-((trifluoromethyl)sulfonyl)piperidin-4-yl)quinazolin-4-amine] | 4 | > 10000
NC(=O)Cc1ccc(N2CCC(Nc3ncnc4ccc(C(c5ccc(Cl)cc5)c5ccc(Cl)cc5)cc34)CC2)cc1 [Compound #74, 2-(4-(4-((6-(bis(4-chlorophenyl)methyl)quinazolin-4-yl)amino)piperidin-1-yl)phenyl)acetamide] | 82 | 178
O=C(O)c1ccc(CN2CCC(Nc3ncnc4ccc(C(c5ccc(Cl)cc5)c5ccc(Cl)cc5)cc34)C2)cc1 (centres unmarked) [Compound #14, 4-((3-((6-(bis(4-chlorophenyl)methyl)quinazolin-4-yl)amino)pyrrolidin-1-yl)methyl)benzoic acid] | 1120 | 8700
Nc1nc(NC2CCN(S(=O)(=O)C(F)(F)F)CC2)c2cc(C(c3ccc(Cl)cc3)c3ccc(Cl)cc3)ccc2n1 [Compound #107, 6-(bis(4-chlorophenyl)methyl)-N4-(1-((trifluoromethyl)sulfonyl)piperidin-4-yl)quinazoline-2,4-diamine] | 75 | > 10000
O=C1CC(Nc2ncnc3ccc(C(c4ccc(Cl)cc4)c4ccc(Cl)cc4)cc23)CCN1c1ccccc1 (centres unmarked) [Compound #102, 4-((6-(bis(4-chlorophenyl)methyl)quinazolin-4-yl)amino)-1-phenylpiperidin-2-one] | 10 | > 10000
CN(Cc1ccc(C(F)(F)F)cc1)c1ncnc2ccc(C(c3ccc(Cl)cc3)c3ccc(Cl)cc3)cc12 [Compound #132, 6-(bis(4-chlorophenyl)methyl)-N-methyl-N-(4-(trifluoromethyl)benzyl)quinazolin-4-amine] | 173 | > 14000
COC(=O)CS(=O)(=O)N1CCC(Nc2ncnc3ccc(C(c4ccc(Cl)cc4)c4ccc(Cl)cc4)cc23)CC1 [Compound #110, Methyl 2-((4-((6-(bis(4-chlorophenyl)methyl)quinazolin-4-yl)amino)piperidin-1-yl)sulfonyl)acetate] | 41 | 3220
CC(C)OC(=O)OCOC(=O)c1ccc(S(=O)(=O)N2CCC(Nc3ncnc4ccc(C(c5ccc(Cl)cc5)c5ccc(Cl)cc5)cc34)CC2)cc1 [Compound #64, ((Isopropoxycarbonyl)oxy)methyl 4-((4-((6-(bis(4-chlorophenyl)methyl)quinazolin-4-yl)amino)piperidin-1-yl)sulfonyl)benzoate] | 15 | > 10000
NC(=O)CS(=O)(=O)N1CCC(Nc2ncnc3ccc(C(c4ccc(Cl)cc4)c4ccc(Cl)cc4)cc23)CC1 [Compound #98, 2-((4-((6-(bis(4-chlorophenyl)methyl)quinazolin-4-yl)amino)piperidin-1-yl)sulfonyl)acetamide] | 232 | 7900
O=S(=O)(N1CCC(Nc2ncnc3ccc(C(c4ccc(Cl)cc4)c4ccc(Br)cc4)cc23)CC1)C(F)(F)F (centres unmarked) [Compound #20, 6-((4-bromophenyl)(4-chlorophenyl)methyl)-N-(1-((trifluoromethyl)sulfonyl)piperidin-4-yl)quinazolin-4-amine] | 17 | 218
O=C(O)CCOCCOc1nc(NCc2cccc(C(F)(F)F)c2)c2cc(C(c3ccc(Cl)cc3)c3ccc(Cl)cc3)ccc2n1 [Compound #48, 3-(2-((6-(bis(4-chlorophenyl)methyl)-4-((3-(trifluoromethyl)benzyl)amino)quinazolin-2-yl)oxy)ethoxy)propanoic acid] | 67 | 806
O=S(=O)(N1CCC(Nc2ncnc3ccc(C(c4ccc(Cl)cc4)c4ccc(Cl)cc4)cc23)CC1)C(F)(F)F [Compound #145, 6-(bis(4-chlorophenyl)methyl)-N-(1-((trifluoromethyl)sulfonyl)piperidin-4-yl)quinazolin-4-amine] | 5 | 801
O=C(O)c1ccc(CN2CCC(Nc3ncnc4ccc(C(c5ccc(Cl)cc5)c5ccc(Cl)cc5)cc34)CC2)s1 [compound 34, 5-((4-(6-(bis(4-chlorophenyl)methyl)quinazolin-4-ylamino)piperidin-1-yl)methyl)thiophene-2-carboxylic acid] | 176 | > 10000
O=C(O)c1ccc(S(=O)(=O)N2CCC(Nc3ncnc4ccc(C(c5ccc(Cl)cc5)c5ccc(Cl)cc5)cc34)CC2)s1 [Compound #25, 5-((4-((6-(bis(4-chlorophenyl)methyl)quinazolin-4-yl)amino)piperidin-1-yl)sulfonyl)thiophene-2-carboxylic acid] | 9 | 278
O=C(NCCO)c1cccc(N2CCC(Nc3ncnc4ccc(C(c5ccc(Cl)cc5)c5ccc(Cl)cc5)cc34)CC2)c1 [compound 83, 3-(4-(6-(bis(4-chlorophenyl)methyl)quinazolin-4-ylamino)piperidin-1-yl)-N-(2-hydroxyethyl)benzamide] | 85 | 3500
FC(F)(F)c1cccc(CNc2ncnc3ccc(C(c4ccc(Cl)cc4)c4ccc(Cl)cc4)cc23)c1 [Compound #136, 6-(bis(4-chlorophenyl)methyl)-N-(3-(trifluoromethyl)benzyl)quinazolin-4-amine] | 3 | > 10000
COC(=O)c1ccc(N2CCC(Nc3ncnc4ccc(C(c5ccc(Cl)cc5)c5ccc(Cl)cc5)cc34)CC2)cc1 [Compound #94, methyl 4-(4-((6-(bis(4-chlorophenyl)methyl)quinazolin-4-yl)amino)piperidin-1-yl)benzoate] | 4 | 68
Oc1cccc(CN2CCC(Nc3ncnc4ccc(C(c5ccc(Cl)cc5)c5ccc(Cl)cc5)cc34)CC2)c1 [Compound #28, 3-((4-((6-(bis(4-chlorophenyl)methyl)quinazolin-4-yl)amino)piperidin-1-yl)methyl)phenol] | 69 | > 10000
